Data: patent publication US5607926A, “Cephalosporin antibiotics” (Microcide Pharmaceuticals, Inc., priority 1995, dated 1997)
≈ marks a conversion by molar mass, not a printed value. Read-outs that look alike come from different tables or passages of the source.

Legend:
Assay type in all cases: cell-based
S. aureus ATCC 25923 = experiment: In vitro antibacterial evaluation, MIC by agar dilution, S. aureus ATCC 25923; settings: Staphylococcus aureus, ATCC25923
Method: (§1) The compounds of the invention were evaluated against several β-lactamresistant bacteria strains by determining the minimum inhibitory concentration (MIC, μg/ml) of each compound with respect to each strain. The MIC, the lowest concentration of antibiotic which inhibits growth of the test organism, was determined by the agar dilution method.
(§2) To determine the MIC for bacterial isolates, the test compound was incorporated in a series of two-fold dilutions into liquified Mueller-Hinton agar. Upon solidification, a number of different bacterial strains were spot inoculated with a replicating device onto the agar surface. […] The procedures used in these studies have been standardized by the National Committee for Clinical Laboratory Standards (NCCLS), as per the NCCLS publication entitled METHODS FOR DILUTION ANTIMICROBIAL SUSCEPTIBILITY TESTS (1991), which is incorporated herein by reference.
(§3) Aliquots of antimicrobial agents were prepared in phosphate buffered saline (PBS) at pH 7.2. Tween 20 or DMSO was used as a solubilizing vehicle as needed. Standard methods of vortexing, sonicating and gentle heat were used to facilitate solubilizing the test agent. Typically, the concentration of the stock solution was 10× that of the highest drug concentration tested. A 1.28 mg/mL stock solution was used with a subsequent highest working concentration of 128 μg/mL. Serial two-fold dilutions were done through ≤0.25 μg/mL. Each drug level was tested in duplicate. Two-fold drug dilutions were done in sterile 50 mL tubes with a final drug volume of 5 mL. Upon the addition of 45 mL of molten agar, a 10-fold dilution resulted. Two, 25 mL. plates were then poured into 15×150 mm square Petri plates with grids and allowed to harden.
(§4) A control plate with a reference drug, either cefotaxime, vancomycin or imipenem, was used as the positive growth control. Stock concentrations of reference antibiotics were prepared and frozen at -80° C. Upon preparation, the control plates were sealed and stored in the refrigerator for up to 1 week prior to use; however, imipenem control plates had to be prepared just prior to use. All test plates were used within 24 hours of preparation.
(§5) Satisfactory results were obtained where the inoculum contained about 10^4 colony forming units (cfu) ±0.5 logs. Starting with pure cultures of the test isolates on agar plates, a few isolated colonies were transferred to a tube of nutrient broth and allowed to grow 4-6 hours at 35°-36° C. to reach log-phase growth. Dropwise addition of the broth culture to PBS was done to match a 0.5 McFarland turbidity standard equal to 10^8 cfu/mL. This was further diluted ten-fold in PBS to reach a working inoculum concentration of 10^7 cfu/mL. When 1 μL of the working inoculum was applied to the agar surface a concentration of about 10^4 cfu per spot was obtained.
(§6) Disposable sterile 1 μL loops were used to inoculate test plates, with each isolate in a designated grid on the agar plate. An alternate method of inoculation involved the use of a replica plater, a device with 48 steel pins allowing the simultaneous inoculation of multiple isolates. After the spots had dried, the plates were incubated at 35°-36° C. for 16-20 hours. Endpoints were assessed as the minimum inhibitory concentration (MIC) of antimicrobial agent.

[1] = test system: S. epidermidis ATCC 31432; experiment: In vitro antibacterial evaluation, MIC by agar dilution, S. epidermidis ATCC 31432; settings: Staphylococcus epidermidis, ATCC31432
Method: as §1, §2, §3, §4, §5, §6

[2] = test system: S. aureus 76 (Meth^R)(lac^+); experiment: In vitro antibacterial evaluation, MIC by agar dilution, S. aureus 76; settings: Staphylococcus aureus, read-out: MIC
Outline: (§7)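 Log-phase cultures (4-6 h broth growth) are adjusted to 0.5 McFarland and diluted to give roughly 10^4 cfu per 1 μL spot. Spots go onto Mueller-Hinton agar containing test compound in two-fold dilutions (128 to ≤0.25 μg/mL), then plates incubate 16-20 hours at 35°-36° C before MIC reading.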

[3] = test system: S. aureus Col8A (Meth^S)(lac^-); experiment: In vitro antibacterial evaluation, MIC by agar dilution, S. aureus Col8A; settings: Staphylococcus aureus
Outline: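 Log-phase isolates were spot-inoculated at about 10^4 cfu onto Mueller-Hinton agar carrying duplicate two-fold compound levels, 128 μg/mL to ≤0.25 μg/mL, following NCCLS (1991). Plates were read after 16-20 h at 35°-36° C. The lowest growth-inhibiting concentration gave the MIC (μg/ml).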

S. haemolyticus (Meth^R) = experiment: In vitro antibacterial evaluation, MIC by agar dilution, S. haemolyticus; settings: Staphylococcus haemolyticus, read-out: MIC
Outline: as §7

E. faecium ATCC 35667 = experiment: In vitro antibacterial evaluation, MIC by agar dilution, E. faecium ATCC 35667; settings: Enterococcus faecium, ATCC35667, read-out: MIC
Outline: as §7

E. faecalis ATCC 29212 = experiment: In vitro antibacterial evaluation, MIC by agar dilution, E. faecalis ATCC 29212; settings: Enterococcus faecalis, ATCC29212; E. faecalis ATCC 29212; read-out: MIC
Outline: as §7

E. coli ATCC 25922 = experiment: In vitro antibacterial evaluation, MIC by agar dilution, E. coli ATCC 25922; settings: Escherichia coli, ATCC25922, read-out: MIC
Outline: as §7

P. aeruginosa ATCC 27853 = experiment: In vitro antibacterial evaluation, MIC by agar dilution, P. aeruginosa ATCC 27853; settings: Pseudomonas aeruginosa, ATCC27853, read-out: MIC
Outline: as §7

S. aureus ATCC 29213 = experiment: In vitro antibacterial evaluation, MIC by agar dilution, S. aureus ATCC 29213; settings: Staphylococcus aureus, ATCC29213
Outline: as §7

[4] = S. epidermidis ATCC 31432, read-out: MIC

Structure (SMILES) | MIC (S. aureus ATCC 25923) | MIC [1] | MIC [2] | MIC [3] | MIC (S. haemolyticus (Meth^R)) | MIC (E. faecium ATCC 35667) | MIC (E. faecalis ATCC 29212) | MIC (E. coli ATCC 25922) | MIC (P. aeruginosa ATCC 27853) | MIC (S. aureus ATCC 29213) | MIC (S. aureus ATCC 29213; S. aureus ATCC 29213, read-out: MIC) | MIC [1, 4]
O=C(Cc1ccccc1)N[C@@H]1C(=O)N2C(C(=O)O)=C(Sc3ccccc3-c3cnco3)CS[C@H]12 [Cmpd 95, (7R)-7-[(Phenylacetyl)amino]-3-(2-oxazol-5-ylphenylthio)-3-cephem-4-carboxylic acid] | < 0.25 µg/mL | < 0.25 µg/mL | 8 µg/mL (≈ 16.2 µM) | < 0.25 µg/mL | 16 µg/mL (≈ 32.4 µM) | 4 µg/mL (≈ 8.1 µM) | 4 µg/mL (≈ 8.1 µM) | > 32 µg/mL | > 32 µg/mL | – | – | –
COc1ccc(Cc2ccc(-c3ccccc3SC3=C(C(=O)O)N4C(=O)[C@@H](NC(=O)Cc5ccccc5)[C@H]4SC3)s2)cc1 [Cmpd 43, (7R)-7-[(Phenylacetyl)amino]-3-(2-(2-(4-methoxy-phenylmethyl)thien-5-yl)phenylthio)-3-cephem-4-carboxylic acid] | < 0.25 µg/mL | < 0.25 µg/mL | 8 µg/mL (≈ 12.7 µM) | < 0.25 µg/mL | 16 µg/mL (≈ 25.4 µM) | 4 µg/mL (≈ 6.36 µM) | 4 µg/mL (≈ 6.36 µM) | > 32 µg/mL | > 32 µg/mL | – | – | –
O=C(Cc1ccccc1)N[C@@H]1C(=O)N2C(C(=O)O)=C(Sc3cccc4ccccc34)CS[C@H]12 [Cmpd 54, (7R)-7-[(Phenylacetyl)amino]-3-(1-naphthalenylthio)-3-cephem-4-carboxylic acid] | – | < 0.25 µg/mL | 8 µg/mL (≈ 16.8 µM) | < 0.25 µg/mL | 16 µg/mL (≈ 33.6 µM) | 4 µg/mL (≈ 8.39 µM) | – | > 32 µg/mL | > 32 µg/mL | < 0.25 µg/mL | – | –
N#Cc1ccc(-c2ccccc2SC2=C(C(=O)O)N3C(=O)[C@@H](NC(=O)Cc4ccccc4)[C@H]3SC2)cc1 [Cmpd 23, (7R)-7-[(Phenylacetyl)amino]-3-(2-(4-cyanophenyl)phenylthio)-3-cephem-4-carboxylic acid] | – | < 0.25 µg/mL | 8 µg/mL (≈ 15.2 µM) | < 0.25 µg/mL | 16 µg/mL (≈ 30.3 µM) | 2 µg/mL (≈ 3.79 µM) | – | > 32 µg/mL | – | < 0.25 µg/mL | – | –
O=C(Cc1ccccc1)N[C@@H]1C(=O)N2C(C(=O)O)=C(Sc3ccc(Cl)cc3Cl)CS[C@H]12 [Cmpd 28, (7R)-7-[(Phenylacetyl)amino]-3-(2,4-dichlorophenylthio)-3-cephem-4-carboxylic acid] | – | < 0.25 µg/mL | 4 µg/mL (≈ 8.07 µM) | < 0.25 µg/mL | 8 µg/mL (≈ 16.1 µM) | 2 µg/mL (≈ 4.04 µM) | – | > 32 µg/mL | – | < 0.25 µg/mL | – | –
O=C(COc1ccc(Cl)cc1)N[C@@H]1C(=O)N2C(C(=O)O)=C(Sc3ccccc3I)CS[C@H]12 [Cmpd 30, (7R)-7-[(p-Chlorophenoxyacetyl)amino]-3-(o-iodophenylthio)-3-cephem-4-carboxylic acid] | – | < 0.25 µg/mL | 2 µg/mL (≈ 3.32 µM) | < 0.25 µg/mL | 4 µg/mL (≈ 6.64 µM) | 1 µg/mL (≈ 1.66 µM) | – | > 32 µg/mL | 13 µg/mL (≈ 21.6 µM) | < 0.25 µg/mL | – | –
Nc1nc(/C(=N/O)C(=O)N[C@@H]2C(=O)N3C(C(=O)O)=C(Sc4ccccc4I)CS[C@H]23)cs1 [Cmpd 22, (7R)-7-[(Z)-2-(aminothiazol-4-yl)-2-(hydroxyimino)acetamido]-3-(o-iodophenylthio)-3-cephem-4-carboxylic acid] | – | – | 4 µg/mL (≈ 6.63 µM) | 0.5 µg/mL (≈ 0.829 µM) | 4 µg/mL (≈ 6.63 µM) | 2 µg/mL (≈ 3.31 µM) | – | 4 µg/mL (≈ 6.63 µM) | – | – | < 0.25 µg/mL | < 0.25 µg/mL
O=C(Cc1cccs1)N[C@@H]1C(=O)N2C(C(=O)O)=C(Sc3ccccc3I)CS[C@H]12 [Cmpd 25, (7R)-7-[(2-Thienylacetyl)amino]-3-(o-iodophenylthio)-3-cephem-4-carboxylic acid] | – | – | 4 µg/mL (≈ 7.16 µM) | 0.125 µg/mL (≈ 0.224 µM) | 16 µg/mL (≈ 28.7 µM) | 2 µg/mL (≈ 3.58 µM) | – | > 32 µg/mL | – | 0.125 µg/mL (≈ 0.224 µM) | – | < 0.06 µg/mL
O=C(Cc1ccccc1)N[C@@H]1C(=O)N2C(C(=O)O)=C(Sc3cccc(Cl)c3Cl)CS[C@H]12 [Cmpd 24, (7R)-7-[(Phenylacetyl)amino]-3-(2,3-dichlorophenylthio)-3-cephem-4-carboxylic acid] | – | < 0.25 µg/mL | 4 µg/mL (≈ 8.07 µM) | < 0.25 µg/mL | 8 µg/mL (≈ 16.1 µM) | 2 µg/mL (≈ 4.04 µM) | – | > 32 µg/mL | – | < 0.25 µg/mL | – | –
O=C(Cc1ccccc1)N[C@@H]1C(=O)N2C(C(=O)O)=C(Sc3ccc(Cl)c(Cl)c3)CS[C@H]12 [Cmpd 18, (7R)-7-[(Phenylacetyl)amino]-3-(3,4-dichlorophenylthio)-3-cephem-4-carboxylic acid] | – | < 0.25 µg/mL | 16 µg/mL (≈ 32.3 µM) | < 0.25 µg/mL | 32 µg/mL (≈ 64.6 µM) | 4 µg/mL (≈ 8.07 µM) | – | > 32 µg/mL | – | < 0.25 µg/mL | – | –
O=C(Cc1cccs1)N[C@@H]1C(=O)N2C(C(=O)O)=C(Sc3cc(Cl)ccc3Cl)CS[C@H]12 [Cmpd 26, (7R)-7-[(2-Thienylacetyl)amino]-3-(2,5-dichlorophenylthio)-3-cephem-4-carboxylic acid] | – | < 0.25 µg/mL | 4 µg/mL (≈ 7.98 µM) | < 0.25 µg/mL | 8 µg/mL (≈ 16 µM) | 2 µg/mL (≈ 3.99 µM) | – | > 32 µg/mL | – | < 0.25 µg/mL | – | –
COc1ccc(CC(=O)N[C@@H]2C(=O)N3C(C(=O)O)=C(Sc4cc(Cl)ccc4Cl)CS[C@H]23)cc1 [Cmpd 32, (7R)-7-[(p-Methoxyphenylacetyl)amino]-3-(2,5-dichlorophenylthio)-3-cephem-4-carboxylic acid] | – | < 0.25 µg/mL | 4 µg/mL (≈ 7.61 µM) | < 0.25 µg/mL | 16 µg/mL (≈ 30.5 µM) | 2 µg/mL (≈ 3.81 µM) | – | > 32 µg/mL | – | < 0.25 µg/mL | – | –
